Measurements taken from US20160296499A1, “Spiroindoline Antiparasitic Derivatives” (ZOETIS SERVICES LLC, priority 2013, published 2016).
Read-outs that look alike come from different tables or passages of the source.

Experiments:
[1] = test system: Dirofilaria immitis microfilariae; test: Dirofilaria immitis, Microfilariae (DiMF) In Vitro Assay; settings: Dirofilaria immitis
Haemonchus contortus L3 = test: Haemonchus contortus, Larvae Stage 3 (HcL3) In Vitro Assay; settings: Haemonchus contortus
[2] = molecular target: T1, bovine vesicular acetylcholine transporter (VAChT) (Bos taurus, UniProt E1BK36); test: Radioligand Binding Assay; settings: Bovine binding Ki, CHO-K1 membranes with recombinant bovine VAChT, [3H]Compound X6 0.3 nM
T1 sequence (E1BK36 1-524): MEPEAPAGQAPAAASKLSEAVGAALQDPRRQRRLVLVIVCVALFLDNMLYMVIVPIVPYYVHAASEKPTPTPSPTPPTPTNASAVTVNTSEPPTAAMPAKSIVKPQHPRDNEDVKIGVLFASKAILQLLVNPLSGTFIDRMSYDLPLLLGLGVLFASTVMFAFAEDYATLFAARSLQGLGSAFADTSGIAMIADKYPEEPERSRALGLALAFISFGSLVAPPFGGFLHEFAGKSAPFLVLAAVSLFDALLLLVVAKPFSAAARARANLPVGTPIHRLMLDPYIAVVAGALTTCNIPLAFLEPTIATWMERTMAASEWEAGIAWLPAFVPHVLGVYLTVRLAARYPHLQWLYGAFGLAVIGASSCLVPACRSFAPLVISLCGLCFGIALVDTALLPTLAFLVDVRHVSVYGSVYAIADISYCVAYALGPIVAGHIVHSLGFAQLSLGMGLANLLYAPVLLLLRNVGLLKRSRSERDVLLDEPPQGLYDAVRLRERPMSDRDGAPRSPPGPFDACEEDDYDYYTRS

[3] = 72 h, read-out: Di MF, MEC, decrease in microfilariae motility by visual assessment, curve starting at 100 μM
[4] = 96 h, read-out: HcL3 MEC, Minimal Effective Concentration whereby worm motility is inhibited by approximately 70%, 37° C., tested 0.001-100 μM
[5] = 96 hours, 37° C., read-out: HcL3 MEC

| SMILES | minimal effective concentration [1, 3] [µM] | minimal effective concentration (Haemonchus contortus L3; [4]) [µM] | Ki [2] [nM] | minimal effective concentration ([1]; 72 hours, read-out: Di MF) [µM] | minimal effective concentration (Haemonchus contortus L3; [5]) [µM] |
| --- | --- | --- | --- | --- | --- |
| O=C(NCc1ccc(Cl)cc1)N1CC2(CCN(C/C=C/c3ccc(Cl)c(Cl)c3)CC2)c2c1ccc1scnc21 [Example 20, (E)-N-(4-chlorobenzyl)-1-(3-(3,4-dichlorophenyl)allyl)spiro[piperidine-4,8′-thiazolo[4,5-e]indole]-6′(7′H)-carboxamide] | 13.5 | 100 | 2120 | – | – |
| O=C(NCc1cnc(Cl)s1)N1CC2(CCN(C/C=C/c3ccc(Cl)c(Cl)c3)CC2)c2c1ccc1scnc21 [Example 21, (E)-N-((2-chlorothiazol-5-yl)methyl)-1-(3-(3,4-dichlorophenyl)allyl)spiro[piperidine-4,8′-thiazolo[4,5-e]indole]-6′(7′H)-carboxamide] | – | – | 105 | 10 | 69.1 |
| O=C(NCc1cncs1)N1CC2(CCN(C/C=C/c3ccc(Cl)c(Cl)c3)CC2)c2c1ccc1scnc21 [Example 22, (E)-1-(3-(3,4-dichlorophenyl)allyl)-N-(thiazol-5-ylmethyl)spiro[piperidine-4,8′-thiazolo[4,5-e]indole]-6′(7′H)-carboxamide] | 10 | 100 | 131 | – | – |
| O=C(NCc1nccs1)N1CC2(CCN(C/C=C/c3ccc(Cl)c(Cl)c3)CC2)c2c1ccc1scnc21 [Example 23, (E)-1-(3-(3,4-dichlorophenyl)allyl)-N-(thiazol-2-ylmethyl)spiro[piperidine-4,8′-thiazolo[4,5-e]indole]-6′(7′H)-carboxamide] | 10 | 100 | 205 | – | – |
| O=C(NCc1cscn1)N1CC2(CCN(C/C=C/c3ccc(Cl)c(Cl)c3)CC2)c2c1ccc1scnc21 [Example 24, (E)-1-(3-(3,4-dichlorophenyl)allyl)-N-(thiazol-4-ylmethyl)spiro[piperidine-4,8′-thiazolo[4,5-e]indole]-6′(7′H)-carboxamide] | 33 | 100 | 1100 | – | – |
| O=C(NCC1CCCCC1)N1CC2(CCN(C/C=C/c3ccc(Cl)c(Cl)c3)CC2)c2c1ccc1scnc21 [Example 25, (E)-N-(cyclohexylmethyl)-1-(3-(3,4-dichlorophenyl)allyl)spiro[piperidine-4,8′-thiazolo[4,5-e]indole]-6′(7′H)-carboxamide] | 13.5 | 100 | 7590 | – | – |
| Cn1cc(CNC(=O)N2CC3(CCN(C/C=C/c4ccc(Cl)c(Cl)c4)CC3)c3c2ccc2scnc32)cn1 [Example 26, (E)-1-(3-(3,4-dichlorophenyl)allyl)-N-((1-methyl-1H-pyrazol-4-yl)methyl)spiro[piperidine-4,8′-thiazolo[4,5-e]indole]-6′(7′H)-carboxamide] | 10 | 10 | 27.8 | – | – |
| Cn1nccc1CNC(=O)N1CC2(CCN(C/C=C/c3ccc(Cl)c(Cl)c3)CC2)c2c1ccc1scnc21 [Example 27, (E)-1-(3-(3,4-dichlorophenyl)allyl)-N-((1-methyl-1H-pyrazol-5-yl)methyl)spiro[piperidine-4,8′-thiazolo[4,5-e]indole]-6′(7′H)-carboxamide] | – | – | 22.6 | 10 | 10 |
| Cn1ccc(CNC(=O)N2CC3(CCN(C/C=C/c4ccc(Cl)c(Cl)c4)CC3)c3c2ccc2scnc32)n1 [Example 28, (E)-1-(3-(3,4-dichlorophenyl)allyl)-N-((1-methyl-1H-pyrazol-3-yl)methyl)spiro[piperidine-4,8′-thiazolo[4,5-e]indole]-6′(7′H)-carboxamide] | 10 | 100 | 511 | – | – |
| O=C(NCc1cocn1)N1CC2(CCN(C/C=C/c3ccc(Cl)c(Cl)c3)CC2)c2c1ccc1scnc21 [Example 29, (E)-1-(3-(3,4-dichlorophenyl)allyl)-N-(oxazol-4-ylmethyl)spiro[piperidine-4,8′-thiazolo[4,5-e]indole]-6′(7′H)-carboxamide] | 10 | 100 | 367 | – | – |
| CC(C)CNC(=O)N1CC2(CCN(C/C=C/c3ccc(Cl)c(Cl)c3)CC2)c2c1ccc1scnc21 [Example 31, (E)-1-(3-(3,4-dichlorophenyl)allyl)-N-isobutylspiro[piperidine-4,8′-thiazolo[4,5-e]indole]-6′(7′H)-carboxamide] | 3.3 | 100 | 846 | – | – |
| O=C(NCC1CC1)N1CC2(CCN(C/C=C/c3ccc(Cl)c(Cl)c3)CC2)c2c1ccc1scnc21 [Example 32, (E)-N-(cyclopropylmethyl)-1-(3-(3,4-dichlorophenyl)allyl)spiro[piperidine-4,8′-thiazolo[4,5-e]indole]-6′(7′H)-carboxamide] | 3.3 | 100 | 136 | – | – |
| O=C(NCC1CCCC1)N1CC2(CCN(C/C=C/c3ccc(Cl)c(Cl)c3)CC2)c2c1ccc1scnc21 [Example 33, (E)-N-(cyclopentylmethyl)-1-(3-(3,4-dichlorophenyl)allyl)spiro[piperidine-4,8′-thiazolo[4,5-e]indole]-6′(7′H)-carboxamide] | 10 | 100 | 1640 | – | – |
| O=C(NCc1ccnnc1)N1CC2(CCN(C/C=C/c3ccc(Cl)c(Cl)c3)CC2)c2c1ccc1scnc21 [Example 37, (E)-1-(3-(3,4-dichlorophenyl)allyl)-N-(pyridazin-4-ylmethyl)spiro[piperidine-4,8′-thiazolo[4,5-e]indole]-6′(7′H)-carboxamide] | 6.9 | 100 | 1210 | – | – |
| O=C(NCc1ccnc(Cl)c1)N1CC2(CCN(C/C=C/c3ccc(F)cc3)CC2)c2c1ccc1scnc21 [Example 38, (E)-N-((2-chloropyridin-4-yl)methyl)-1-(3-(4-fluorophenyl)allyl)spiro[piperidine-4,8′-thiazolo[4,5-e]indole]-6′(7′H)-carboxamide] | 3.3 | 10 | 45.6 | – | – |
| O=C(NCc1ccnc(Cl)c1)N1CC2(CCN(C/C=C/c3ccc(Cl)cc3)CC2)c2c1ccc1scnc21 [Example 39, (E)-1-(3-(4-chlorophenyl)allyl)-N-((2-chloropyridin-4-yl)methyl)spiro[piperidine-4,8′-thiazolo[4,5-e]indole]-6′(7′H)-carboxamide] | 3.3 | 6.9 | 90 | – | – |
| O=C(NCc1ccnc(Cl)c1)N1CC2(CCN(C/C=C/c3ccc(Cl)c(Cl)c3)CC2)c2c1ccc1scnc21 [Example 40, (E)-N-((2-chloropyridin-4-yl)methyl)-1-(3-(3,4-dichlorophenyl)allyl)spiro[piperidine-4,8′-thiazolo[4,5-e]indole]-6′(7′H)-carboxamide] | 5.7 | 4.8 | 110 | – | – |
| O=C(NCc1ccnc(Cl)c1)N1CC2(CCN(C/C=C/c3ccc(C(F)(F)F)cn3)CC2)c2c1ccc1scnc21 [Example 41, (E)-N-((2-chloropyridin-4-yl)methyl)-1-(3-(5-(trifluoromethyl)pyridin-2-yl)allyl)spiro[piperidine-4,8′-thiazolo[4,5-e]indole]-6′(7′H)-carboxamide] | 33 | > 100 | 428 | – | – |
| COc1ccc(/C=C/CN2CCC3(CC2)CN(C(=O)NCc2ccnc(Cl)c2)c2ccc4scnc4c23)cc1 [Example 42, (E)-N-((2-chloropyridin-4-yl)methyl)-1-(3-(4-methoxyphenyl)allyl)spiro[piperidine-4,8′-thiazolo[4,5-e]indole]-6′(7′H)-carboxamide] | 10 | > 100 | 55 | – | – |
| Cc1nc2c3c(ccc2s1)N(C(=O)NCc1ccnc(Cl)c1)CC31CCN(C/C=C/c2ccc(Cl)cc2)CC1 [Example 43, (E)-1-(3-(4-chlorophenyl)allyl)-N-((2-chloropyridin-4-yl)methyl)-2′-methylspiro[piperidine-4,8′-thiazolo[4,5-e]indole]-6′(7′H)-carboxamide] | 10 | > 100 | 264 | – | – |
| Cc1nc2c3c(ccc2s1)N(C(=O)NCc1ccnc(Cl)c1)CC31CCN(C/C=C/c2ccc(F)cc2)CC1 [Example 44, (E)-N-((2-chloropyridin-4-yl)methyl)-1-(3-(4-fluorophenyl)allyl)-2′-methylspiro[piperidine-4,8′-thiazolo[4,5-e]indole]-6′(7′H)-carboxamide] | – | – | 507 | 10 | > 100 |
